# Measurements taken from patent US20240336658A1, “CYCLIC PEPTIDE AND PREPARATION METHOD AND USE THEREOF” (HANGZHOU HUIBO SCIENCE AND TECHNOLOGY CO., LTD, priority 2021, published 2024).
# Test system: full-thickness skin defect wound surfaces
# Test: Effect of Hst1-MAD cyclic peptide on wound repair in mice (Example 22): healing rate, histology, immunohistochemistry, immunofluorescence double staining, Western Blot
# Format: in vivo, C57 BL/6 mice
# Procedure: […]. 36 healthy male special pathogen-free grade C57 BL/6 mice (purchased from Guangdong Experimental Animal Center) of 6-8 weeks old and weighing 22-28 g. They were intraperitoneally injected with 5 ml/kg of 1% pentobarbital sodium for anesthesia. After the mice had no corneal reflex, the hair on their backs was carefully removed and disinfected with alcohol. […] full-thickness skin defect wound surfaces were prepared on the back of each mouse by using a circular skin punch. […]. Each wound surface was added with 0.5 ml of four drugs respectively, and administration was conducted every day until the wound surfaces of the experimental groups healed. Photographs were taken on days 0, 3, 5, and 10 after surgery, and wound tissues were sampled on days 3, 5, and 10 for subsequent pathological staining.
# was observed and photographed with a digital camera (see FIG. 19), and the wound healing rate was calculated (see FIG. 20). Wound healing rate=(wound area immediately after injury−unhealed wound area at each time point)÷wound area immediately after injury×100%.
# The wound specimens were fixed in 4% paraformaldehyde for 48 hours, rinsed with tap water for 10 minutes, dehydrated with graded ethanol, permeabilized with xylene, and embedded in paraffin to prepare 4 μm thick sections. Some sections were taken and subjected to HE staining to detect an epidermal thickness and subjected to Masson staining to detect newly grown collagen. Through hematoxylin-cosin staining (HE), the effects of the four groups of drugs on newly grown epidermal at the wound surface on day 10 were evaluated (FIGS. 21 and 22). Through Masson staining, the effects of the four groups of drugs on newly grown collagen at the wound surface on days 5 and 10 were evaluated (FIGS. 23 and 24). 5 sections were taken from each mouse, and 5 fields of view were selected for each section. Data analysis was performed using the software Image-pro Plus.
# and rehydrated, subjected to antigen thermal repair with a 0.1 mol/L citric acid buffer (with a pH value of 6.0) for 20 minutes, treated with hydrogen peroxide with a volume fraction of 10% for inactivation of endogenous peroxidase for 10 minutes, and blocked with 50 g/L of bovine serum albumin for 2 hours. It was added with a rabbit anti-mouse CD31 primary antibody (with a dilution ratio of 1:300) and a mouse anti-VEGF (with a dilution ratio of 1:100), incubated overnight at 4° C., and washed with PBS. It was rewarmed for 1 hour, washed with PBS, added dropwise with ready-to-use biotinylated goat anti-mouse and goat anti-rabbit IgG secondary antibodies, incubated for 2 hours, and washed with PBS. It was subjected to DAB development, hematoxylin counterstaining. gradient ethanol dehydration, xylene permeabilization, and resin blocking. 5 sections were taken from each mouse, and 5 fields of view were selected for each section. The sections were observed under a 400× inverted fluorescence microscope, and analyzed for the number of CD31-positive blood vessels (see FIG. 25) and VEGF expression amounts (see FIG. 26) by using Image-pro Plus software.
# The specific steps were: the previous steps were the same as those of 1.3.3, and they were incubated with the antibodies MHCII (orb101661; 1:500; Biorbyt Biotechnology Co., Ltd., Wuhan, CN), CD11c (97585; 1:200; Cell Signaling Technology Inc., Boston, MA), CD68 (GB11067; 1:300; Servicebio Inc.), CD80 (GB11034; 1:300; Servicebio Inc.), CD206 (GB11062; 1:500; Servicebio Inc.), claudin1 (37-4900; 1:100; Thermo Fisher Scientific Co., Ltd, Shanghai, CN) and claudin2 (32-5600; 1:200; Thermo Fisher Scientific Co., Ltd.) at 4° C. overnight. The fluorescent-labeled secondary antibodies were incubated at room temperature for 1 h, followed by 4′,6-diamidino-2′-phenylindole (DAPI) (G1012; Google Biotechnology Co., Ltd., Wuhan, CN). The stained sections were photographed by using a fluorescence microscope (Nikon Eclipse TI-SR. Tokyo, Japan). […]
# [1] = day 3 after surgery, Western Blot, 10 μM Histatin1
# [2] = day 10, immunofluorescence, 1 μM Click-Hst1-MAD, 1 μM Hst1-MAD, 10 μM Histatin1
substance,measurement,setting,value
"Linear Hst1: linear peptide Hst1 (Histatin1), amino acid sequence SEQ ID NO.1",number of M2 macrophages (CD68+ and CD206+),"day 3, 1 μM Click-Hst1-MAD, 10 μM Hst1, M±SD",12.67±7.34
same,expression level of HO-1 relative to the control group,[1],1.80 times
same,expression level of Nrf2 relative to the control group,[1],1.27 times
same,expression level of NQO1 relative to the control group,"day 3 after surgery, Western Blot, 10 μM Hst1",2.08 times
same,number of dendritic cells (MHCII+ and CD11c+) relative to the control group,"day 3 after surgery, 10 μM Hst1, 1 μM Click-Hst1-MAD",1.75 times
same,VEGF expression amount,"day 5, 1 μM Click-Hst1-MAD, 10 μM Histatin1, 1 μM Hst1-MAD compared with each other",comparable
same,expression levels of the dermal collagen,"day 5, 1 μM Hst1-MAD and 10 μM Histatin1 compared with each other",equivalent
same,Claudin1 expression intensity,[2],equivalent expression level of Claudin1
same,Claudin2 expression intensity,[2],no obvious effect on promoting Claudin2 expression
same,VEGF expression amount,"day 10, 1 μM Click-Hst1-MAD, 10 μM Histatin1",higher
same,number of dendritic cells (MHCII+ and CD11c+),"days 3 and 5 evaluated, 1 μM Click-Hst1-MAD, 1 μM Hst1-MAD, 10 μM Histatin1",significantly higher than that in the Control group
same,number of M1 macrophages (CD68+ and CD80+),"days 3 and 5 evaluated, 1 μM Hst1-MAD, 10 μM Histatin1",lower than that in the Control group
same,number of CD31-positive blood vessels,"days 5 and 10, immunohistochemistry, 1 μM Click-Hst1-MAD, 1 μM Hst1-MAD, 10 μM Histatin1",significantly higher than that in the Control group
